The values that follow come from patent US12516022B2, “Derivatives of aryl hydrocarbon receptor agonists” (AZORA THERAPEUTICS, INC., priority 2021, dated 2026).

Data set [1] can be described thus: Indirubin solubility in biorelevant media (FaSSIF, FaSSGF), HPLC. The class given is physicochemical. The note with it: for Solubility in the simulated fluids: FaSSGF and FaSSIF.
Method: Biorelevant media was prepared as per the supplier's (Biorelevant) method, using FaSSIF/FeSSIF/FaSSGF powders. In brief, FaSSGF media was prepared using 0.06 g/L FaSSIF/FeSSIF/FaSSGF powder in 2 g/L NaCl solution, pH adjusted to 1.6 with 1N HCl. FaSSIF media was prepared with 2.24 g/L FaSSIF/FeSSIF/FaSSGF powder in sodium phosphate buffer, pH adjusted to 6.5 with 1N NaOH. (Sodium phosphate buffer prepared as a 0.42 g/L NaOH, 3.95 g/L NaH2PO4·H2O, 6.19 g/L NaCl solution).
Solubility assessments were performed as follows. An individual flask was prepared for each media and time point. Flasks were placed in a shaking water bath kept at 37° C. Flasks were removed from the bath at specified time points of 1 hour, 4 hours and 24 hours, allowed to cool, and an aliquot taken and filtered.
Data set [2] relates to dextran sodium sulfate (DSS)-induced acute colitis. The experiment in a line: DSS-induced acute colitis mouse model, exemplary compounds (Example 7). The note with it: mice, oral gavage twice daily for 9 days, indirubin molar equivalent of 15 mg/kg. The class given is in vivo. The method, then: Eight week old female C57 BL/6J mice, around 20 g body weight purchased from Charles River Laboratories were bred in specific pathogen free IVC cages (4 mice in each cage) in a temperature controlled (20±2° C.) room with a 12 hour light-dark cycle. Chow pellets and tap water were available ad libitum. All experimental protocols were approved by the Institutional Animal Care and Use Committee. The mice were acclimated at the animal facility for at least of three days before the experiments. To generate dextran sodium sulfate (DSS)-induced acute colitis, the mice were induced with 3% DSS (molecular weight 36,000-50,000; […] DSS solution was freshly prepared and changed daily. These mice were euthanized on day 8 (9th day of the experiment). Body weight and disease activity index (DAI) soring were recorded daily to assess the colitis. DAI score was the sum of the weight loss score, stool score and bleeding subscores. A blinded scoring system was employed to assess the colitis. The DAI scorer blinded to the group information and animal ID was responsible for the stool consistency and bleeding evaluations. DAI scoring standards will be followed as below. A study was conducted as in set forth in Example 6. […] Mice in the vehicle group were given only 200 μL distilled water by gavage.

Data set [3] can be described thus: Indirubin levels in plasma, colon and lung of colitis mice, LC-MS/MS (Example 8). The note with it: six hours after the last oral dose, indirubin molar equivalent of 15 mg/kg twice daily. The class given is in vivo. As for the experimental part:
Five animals from each group in Example 7 were euthanized six hours after the last oral dose. At this time plasma, lung and colon was harvested. Colon was washed three times in cold phosphate buffered saline (PBS) to remove colon contents.
Indirubin was detected utilizing LC-MS/MS.
To prepare samples, an aliquot of 20 μL unknown sample, calibration standard, quality control, single blank and double blank samples were added to the 96-well plate. Samples (except the double blank) for plasma were quenched with 100 μL internal standard respectively (double blank sample was quenched with 100 μL acetonitrile (ACN)), samples (except the double blank) for liver, lung and colon were quenched with 80 μL internal standard respectively (double blank sample was quenched with 80 μL ACN), and then the mixture was vortex-mixed for 5 minutes at 800 rpm and centrifuged for 15 minutes at 3220 g (4000 rpm), at 4° C. 50 μL supernatant was transfer to another clean 96-well plate and the supernatant were directly injected for LC-MS/MS analysis.

The target in a further data set is T1, AhR (Rattus norvegicus, UniProt P41738).
T1 sequence (P41738 10-853): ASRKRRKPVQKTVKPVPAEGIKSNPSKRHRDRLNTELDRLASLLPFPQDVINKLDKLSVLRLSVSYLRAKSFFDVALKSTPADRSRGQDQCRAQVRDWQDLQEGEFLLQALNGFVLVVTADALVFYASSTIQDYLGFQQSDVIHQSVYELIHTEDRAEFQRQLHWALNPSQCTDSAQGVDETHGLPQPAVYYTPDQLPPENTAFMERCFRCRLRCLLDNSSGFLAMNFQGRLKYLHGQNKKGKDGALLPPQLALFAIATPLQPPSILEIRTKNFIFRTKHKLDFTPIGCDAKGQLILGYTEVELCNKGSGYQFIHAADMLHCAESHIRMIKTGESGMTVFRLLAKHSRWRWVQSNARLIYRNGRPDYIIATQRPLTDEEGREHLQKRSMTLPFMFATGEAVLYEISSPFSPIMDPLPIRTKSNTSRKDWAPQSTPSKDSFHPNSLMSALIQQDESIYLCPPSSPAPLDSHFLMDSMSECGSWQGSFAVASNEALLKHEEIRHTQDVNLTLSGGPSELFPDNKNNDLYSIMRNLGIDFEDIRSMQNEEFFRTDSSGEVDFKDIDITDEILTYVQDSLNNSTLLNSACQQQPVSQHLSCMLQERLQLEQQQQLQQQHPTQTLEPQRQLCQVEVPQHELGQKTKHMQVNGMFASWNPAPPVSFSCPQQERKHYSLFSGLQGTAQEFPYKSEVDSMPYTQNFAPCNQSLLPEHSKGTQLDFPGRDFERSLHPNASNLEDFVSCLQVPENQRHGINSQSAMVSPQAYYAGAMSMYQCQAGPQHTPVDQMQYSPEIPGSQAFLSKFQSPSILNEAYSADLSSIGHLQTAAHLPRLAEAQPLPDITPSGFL
Put plainly: AhR/arnt-luciferase reporter assay in rat H4IIE cells.

Data set [4] can be described thus: Stability of indirubin prodrugs in simulated fluids (FaSSIF, FaSSGF), 24 h at 37° C., UPLC-MS. It counts as physicochemical. The method, then: 10.41 g fasted state simulated intestinal fluid (FaSSIF) buffer concentrate was dissolved in 240.3 g deionized water and 560 mg FaSSIF powder added. The mixture was stirred until complete dissolution observed. The test compound (approx. 1-3 mg) was placed in 5.00 mL of FaSSIF solution. Samples of the solution with the test compound were taken after 24 hours in at 37° C. (oven-controlled temperature).
36.78 g fasted state simulated gastric fluid (FaSSGF) buffer concentrate was dissolved in 961.9 g deionized water and 60 mg FaSSGF powder added. The mixture was stirred until complete dissolution observed. The test compound (approx. 1-3 mg) was placed in 5.00 mL of FaSSGF solution. Samples of the solution with the test compound were taken after 24 hours in at 37° C. (oven-controlled temperature).
UPLC-MS analysis of the samples taken at 24 hours was carried out on a Waters Acquity UPLC system consisting of an Acquity I-Class Sample Manager-FL, Acquity I-Class Binary Solvent Manager and an Acquity UPLC Column Manager. UV detection was afforded using an Acquity UPLC PDA detector (scanning from 210 to 400 nm), whilst mass detection was achieved using an Acquity QDa detector (mass scanning from 100-1250 Da; positive and negative modes simultaneously), and ELS detection was achieved using an Acquity UPLC ELS Detector. A Waters Acquity UPLC BEH C18 column (2.1 Å˜50 mm, […]) was used to separate the analytes. Samples were prepared by dissolution (with or without sonication) into 1 mL of 50% (v/v) MeCN in water. The resulting solutions were then filtered through a […] syringe filter before submitting for analysis. All of the solvents, including formic acid and 36% ammonia solution, were purchased as the HPLC grade.

Method for AhR: TCDD and MeBio were included in the study as positive controls. These were added into cell culture media containing charcoal-stripped fetal bovine serum to produce a 2× stock and then added to the reporter cells. The reporter cells were human Huh7 cells or Rat H4IIE cell lines with the native AhR and an AhR/arnt-Luciferase reporter vector. The final concentration of DM50 was 0.1%. Cells were incubated for 22 hours at 37° C. prior to addition of the luciferase detection reagent and measurement of activity in relative luminescence units.

Regarding `CCN(CC)CN1C(=O)/C(=C2\Nc3ccccc3C2=O)c2ccccc21` [Compound 9], in data set [1], the “Solubility in the simulated fluids” value is on record as “soluble in the simulated fluids”.

In the case of `O=C1/C(=C2/C(=O)N(CN3CCCC3)c3ccccc32)Nc2ccccc21` [Compound 41], the “Efficacy (percent of initial body weight, DAI score)” value in data set [2] is listed as “more effective than an equimolar amount of indirubin”.

With `O=C1Nc2ccccc2/C1=C1/Nc2ccccc2C1=O` [synthetic indirubin], in data set [1] (FaSSIF 24 hr, 37° C., 5 μg/mL indirubin or molar equivalent), the “% indirubin recovered in solution” value came to 0.1%. In data set [2], the “Colon length versus vehicle” value is on record as “vehicle only have a shorter colon than those treated with synthetic indirubin”. In data set [3], the “Mean Indirubin Level, Colon” value is 2.43 ng/g; the “Mean Indirubin Level, Lung” value is listed as 2.12 ng/g; the “Mean Indirubin Level, Plasma” value worked out at 0.05 ng/mL.

As for `O=C1Nc2ccccc2/C1=C1/Nc2ccccc2C1=O` [indirubin, reference compound], the EC50 on AhR is around 654 nM.

Take `O=C1/C(=C2/C(=O)N(C(=O)NC3CCOCC3)c3ccccc32)Nc2ccccc21` [drawing 236]: in data set [4] (FaSSGF 37° C. 24 h), the “Fraction (percent) of indirubin” value is 13% and the “Fraction (percent) of starting material (SM)” value (shortened to “Fraction (percent) … (SM)”) is 68%. Moreover, in data set [4] (FaSSIF 37° C. 24 h), the “Fraction (percent) of indirubin” value is 10% and the “Fraction (percent) … (SM)” value was 57%.

For `CN1CCN(CN2C(=O)/C(=C3\Nc4ccccc4C3=O)c3ccccc32)CC1` [drawing 222], in data set [4] (FaSSIF 37° C. 24 h), the “Fraction (percent) of indirubin” value is 19% and the “Fraction (percent) … (SM)” value was 50%.

On to `CCN(CC)CN1C(=O)/C(=C2\Nc3ccccc3C2=O)c2ccccc21` [drawing 221], for which the “Fraction (percent) of indirubin” value in data set [4] (FaSSGF 37° C. 24 h) and in data set [4] (FaSSIF 37° C. 24 h) was 100% in each case. In addition, the “Fraction (percent) … (SM)” value in data set [4] (FaSSGF 37° C. 24 h) and in data set [4] (FaSSIF 37° C. 24 h) was 0% in each case.

As to `CN(C)CCCNC(=O)N1C(=O)/C(=C2\Nc3ccccc3C2=O)c2ccccc21`, the “Fraction (percent) of indirubin” value is 0% in data set [4] (FaSSGF 37° C. 24 h) and 1% in data set [4] (FaSSIF 37° C. 24 h). Besides, the “Fraction (percent) … (SM)” value is recorded as 100% in data set [4] (FaSSGF 37° C. 24 h) and 94% in data set [4] (FaSSIF 37° C. 24 h).

As for `O=C1/C(=C2/C(=O)N(COc3ccccc3)c3ccccc32)Nc2ccccc21`, in data set [4] (FaSSGF 37° C. 24 h), the “Fraction (percent) of indirubin” value is on record as 0% and the “Fraction (percent) … (SM)” value is on record as 100%. Further, in data set [4] (FaSSIF 37° C. 24 h), the “Fraction (percent) of indirubin” value was 0% and the “Fraction (percent) … (SM)” value was 100%.

As for `CC(=O)OCN1C(=O)/C(=C2\Nc3ccccc3C2=O)c2ccccc21`, in data set [4] (FaSSGF 37° C. 24 h), the “Fraction (percent) of indirubin” value is recorded as 3% and the “Fraction (percent) … (SM)” value is given as 94%. Further, in data set [4] (FaSSIF 37° C. 24 h), the “Fraction (percent) of indirubin” value is given as 0% and the “Fraction (percent) … (SM)” value was 100%.

With `O=C1/C(=C2/C(=O)N(C(=O)CCCN3CCOCC3)c3ccccc32)Nc2ccccc21`, in data set [4] (FaSSGF 37° C. 24 h), the “Fraction (percent) of indirubin” value is recorded as 0% and the “Fraction (percent) … (SM)” value is reported as 100%. In addition, in data set [4] (FaSSIF 37° C. 24 h), the “Fraction (percent) of indirubin” value is on record as 0% and the “Fraction (percent) … (SM)” value is recorded as 100%.

In the case of `Cl.NCCCNC(=O)N1C(=O)/C(=C2\Nc3ccccc3C2=O)c2ccccc21`, the “Fraction (percent) of indirubin” value in data set [4] (FaSSGF 37° C. 24 h) is listed as 7%; in data set [4] (FaSSIF 37° C. 24 h) it was 0%. The “Fraction (percent) … (SM)” value in data set [4] (FaSSGF 37° C. 24 h) is reported as 86%; in data set [4] (FaSSIF 37° C. 24 h), 100%.

Consider `CN1CCN(CN2C(=O)/C(=C3\Nc4ccccc4C3=O)c3ccccc32)CC1` [Compound 10], for which the “Solubility in the simulated fluids” value in data set [1] is recorded as “soluble in the simulated fluids”.

As to `COCN1C(=O)/C(=C2\Nc3ccccc3C2=O)c2ccccc21`, the “Fraction (percent) of indirubin” value in data set [4] (FaSSGF 37° C. 24 h) and in data set [4] (FaSSIF 37° C. 24 h) was 2% throughout. For the same compound, the entries for the “Fraction (percent) … (SM)” value in data set [4] (FaSSGF 37° C. 24 h) and in data set [4] (FaSSIF 37° C. 24 h) were 100% and 91%, respectively.

`O=C1/C(=C2/C(=O)N(CS(=O)(=O)c3ccccc3)c3ccccc32)Nc2ccccc21`: the “Fraction (percent) of indirubin” value in data set [4] (FaSSGF 37° C. 24 h) and in data set [4] (FaSSIF 37° C. 24 h) was 0% throughout. Besides, the “Fraction (percent) … (SM)” value in data set [4] (FaSSGF 37° C. 24 h) and in data set [4] (FaSSIF 37° C. 24 h) was 100% each time.

As for `O=C1/C(=C2/C(=O)N(C(=O)N3CCOCC3)c3ccccc32)Nc2ccccc21`, in data set [4] (FaSSGF 37° C. 24 h), the “Fraction (percent) of indirubin” value is given as 0% and the “Fraction (percent) … (SM)” value is given as 100%. Further, in data set [4] (FaSSIF 37° C. 24 h), the “Fraction (percent) of indirubin” value is listed as 0% and the “Fraction (percent) … (SM)” value is listed as 100%.

With `CCOC(=O)N1C(=O)/C(=C2\Nc3ccccc3C2=O)c2ccccc21`, in data set [4] (FaSSGF 37° C. 24 h), the “Fraction (percent) of indirubin” value was 0% and the “Fraction (percent) … (SM)” value is 100%. Besides, in data set [4] (FaSSIF 37° C. 24 h), the “Fraction (percent) of indirubin” value is given as 0% and the “Fraction (percent) … (SM)” value was 100%.

In the case of `Cl.NCCNC(=O)N1C(=O)/C(=C2\Nc3ccccc3C2=O)c2ccccc21`, in data set [4] (FaSSGF 37° C. 24 h), the “Fraction (percent) of indirubin” value is on record as 0% and the “Fraction (percent) … (SM)” value was 100%. In data set [4] (FaSSIF 37° C. 24 h), the “Fraction (percent) of indirubin” value is on record as 0% and the “Fraction (percent) … (SM)” value is 100%.

For the compound `O=C1/C(=C2/C(=O)N(CO)c3ccccc32)Nc2ccccc21` [drawing 219], in data set [4] (FaSSGF 37° C. 24 h), the “Fraction (percent) of indirubin” value was 13% and the “Fraction (percent) … (SM)” value is reported as 87%. Further, in data set [4] (FaSSIF 37° C. 24 h), the “Fraction (percent) of indirubin” value is 100% and the “Fraction (percent) … (SM)” value is listed as 0%.
